Results on 15 compounds are retold here after patent US9073830B2 (Hyundai Pharm Co., Ltd., priority 2011, dated 2015).

SMILES strings stand for the structures.

One test addresses T1, mouse 11β-HSD1 (Mus musculus, UniProt P50172).
T1 construct: 100 ug/ml human/mouse liver microsomes; from tissue; host or cells: mouse liver microsomes
As to the kind of experiment: Enzyme activity analysis on mouse 11β-HSD1 (HTRF cortisol, liver microsomes). Type of test: biochemical. Conditions: second value of cell. The method in brief:
(§1)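 Cortisol generated by mouse or human liver microsome 11β-HSD1 during 2 h at 37° C., measured by HTRF competition (cryptate anti-cortisol antibody, d2-cortisol, 2 h room temperature) against a cortisol standard curve. IC50 from percent inhibition versus no-compound control.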
For orientation: Time-resolved FRET reads energy transfer from a long-lived donor to a nearby acceptor.

The target of another test is T2, human 11β-HSD1 (Homo sapiens, UniProt P28845).
T2 construct: 100 ug/ml human/mouse liver microsomes; from tissue; host or cells: human liver microsomes
As to the kind of experiment: Enzyme activity analysis on human 11β-HSD1 (HTRF cortisol, liver microsomes). Type of test: biochemical. Conditions: first value of cell. The method in brief: as §1

In another test the target is T3, human 11β-HSD2 (Homo sapiens, UniProt P80365).
T3 construct: host or cells: CHO cells
T3 sequence (P80365 1-405): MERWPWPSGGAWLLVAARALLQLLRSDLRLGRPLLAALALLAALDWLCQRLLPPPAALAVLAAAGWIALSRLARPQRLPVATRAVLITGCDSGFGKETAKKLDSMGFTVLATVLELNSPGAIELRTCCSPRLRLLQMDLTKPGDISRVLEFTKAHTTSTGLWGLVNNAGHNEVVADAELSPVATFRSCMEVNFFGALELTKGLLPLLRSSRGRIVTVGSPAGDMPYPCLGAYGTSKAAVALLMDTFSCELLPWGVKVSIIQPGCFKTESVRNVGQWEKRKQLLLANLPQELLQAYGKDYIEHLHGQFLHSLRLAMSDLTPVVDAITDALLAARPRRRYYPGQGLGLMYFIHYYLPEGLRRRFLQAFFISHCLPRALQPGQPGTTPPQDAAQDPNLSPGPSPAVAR
Kind of test: 11b-HSD2 inhibition test in transfected CHO cells. Type of test: cell-based. Conditions: at a concentration of 10 uM; CHO cells expressing human 11β-HSD2; read-out: 11b-HSD2 inhibitory effect. As for the experimental part:
CHO cells were plated on a 96 well plate with RPMI (Wellgene) medium (phenol red free) containing 100 μl of 10% FBS, 100 ug/ml of penicillin and 100 ug/ml of streptomycin (2×10^4 cells/well). CHO cells were transfected with plasmid (Origene, SC122552) (pCMV6-XL5 vector) expressing human 11β-HSD2 by using FuGENE6 reagent (Promega, E2311). 24 hours after transfection, the transfected cells were added with 50 nM of cortisol (Sigma) in the presence or absence of the compound at various concentrations. On the following day (24 hours later), the supernatant liquid was obtained, and through HTRF (Cisbio, 62CO2PEB) analysis, a competitive amount of cortisol was measured.

The next test deals with T4, glucocorticoid receptor (Homo sapiens, UniProt P04150).
T4 construct: 4× GR-LBD up to 4 nM, and 4× Tb anti-GST Antibody up to 8 nM; purchased Invitrogen PV6040
T4 sequence (P04150 524-758 limits assumed): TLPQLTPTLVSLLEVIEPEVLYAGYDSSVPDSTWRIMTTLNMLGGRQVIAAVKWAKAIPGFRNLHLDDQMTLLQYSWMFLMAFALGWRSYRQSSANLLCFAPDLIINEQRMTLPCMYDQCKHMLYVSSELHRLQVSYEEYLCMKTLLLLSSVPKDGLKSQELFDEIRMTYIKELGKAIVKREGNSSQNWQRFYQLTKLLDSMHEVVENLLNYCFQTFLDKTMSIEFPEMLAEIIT
Kind of test: Competitive binding of glucocorticoid receptor (LanthaScreen TR-FRET). The settings on record: final concentration 10 uM. As for the experimental part:
In order to confirm the selective inhibitory ability of 11β-HSD1 inhibitor, competitive binding between 11β-HSD1 inhibitor and glucocorticoid ligand was tested by using LanthaScreen TR-FRET Glucocorticoid Receptor Competitive Binding Assay (Invitrogen, PV6040). The test material was dissolved in DMSO (Sigma, 276855) up to a 100× concentration of its final concentration (10 uM), and then Complete Nuclear Receptor Buffer F (1× stabilizing peptide, 5 mM DTT, Nuclear Receptor Buffer F) was used to dilute the test material up to a concentration of 2×, 4× Fluormone™ GS1 Green up to 20 nM, 4× GR-LBD up to 4 nM, and 4× Tb anti-GST Antibody up to 8 nM.
In order to obtain 60 μl of a final product through a reaction, on a 96-well plate, 2× test material 30 μl, 4× Fluormone™ GS1 Green 15 μl, and 4× GR-LBD/Tb anti-GST Antibody 15 μl were mixed, and reacted for 1 hour. In a positive control group, instead of the test material, Dexamethasone (Sigma, D1756), known as a ligand for glucocorticoid receptor, was used, and in a maximum active control group, DMSO was used, instead of the test material. In a negative control group, instead of the test material, DMSO was used, instead of Fluormone™ GS1 Green, Complete Nuclear Receptor Buffer F was used. On a 384-well white plate, 20 μl each was plated. By using Time-Resolved program in Flexstation3, a fluorescence value was read after excitation ([…]), emission (515 nM/486 nM), Delay time (100 μs), and Integration time (1500 μs) were programmed. By using the obtained value, a value of 515 nM/486 nM was calculated, from which the value in the negative control group was subtracted. The degree of binding of the test material to glucocorticoid receptor of was calculated by the active value of the test material with respect to the active value (100%) in the maximum active control group.

T1 sequence (P50172 whole entry): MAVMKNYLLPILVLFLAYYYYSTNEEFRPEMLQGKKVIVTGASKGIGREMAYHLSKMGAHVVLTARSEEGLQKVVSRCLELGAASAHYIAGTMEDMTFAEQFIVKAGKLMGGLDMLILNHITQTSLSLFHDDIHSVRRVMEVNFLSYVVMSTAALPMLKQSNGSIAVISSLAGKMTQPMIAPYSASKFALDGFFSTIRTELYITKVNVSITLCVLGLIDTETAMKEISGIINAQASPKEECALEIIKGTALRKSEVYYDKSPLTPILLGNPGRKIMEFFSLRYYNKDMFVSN
T2 sequence (P28845 whole entry): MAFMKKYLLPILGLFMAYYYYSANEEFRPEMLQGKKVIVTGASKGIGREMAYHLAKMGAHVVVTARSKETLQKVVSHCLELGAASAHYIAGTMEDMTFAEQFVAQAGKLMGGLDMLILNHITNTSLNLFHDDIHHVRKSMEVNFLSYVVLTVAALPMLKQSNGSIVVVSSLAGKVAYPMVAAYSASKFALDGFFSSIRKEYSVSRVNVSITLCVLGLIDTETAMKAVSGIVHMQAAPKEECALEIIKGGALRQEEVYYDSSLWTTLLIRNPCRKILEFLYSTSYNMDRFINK

For the compound `NC(=O)C12CC3CC(C1)C(NC(=O)C1(NS(=O)(=O)c4cccc5cccnc45)CCC1)C(C3)C2` (stereo not drawn) [compound 146, N-4-(1-(quinoline-8-sulfonamido)cyclobutanecarboxyamido)adamantane-1-carboxyamide], the IC50 at mouse 11β-HSD1 stood at 0.02 µM; against human 11β-HSD1 it was 0.029 µM. At human 11β-HSD2, the inhibition at 10 µM was not above 40%.
`CC(C)(NS(=O)(=O)c1ccccc1OC(F)(F)F)C(=O)NC1C2CC3CC1CC(C(N)=O)(C3)C2` (stereo not drawn) [compound 90, N-4-(2-(2-trifluoromethoxyphenylsulfonamido)-2-methylpropanamido)adamantane-1-carboxyamide]: the IC50 was 0.03 µM on mouse 11β-HSD1 and 0.017 µM against human 11β-HSD1. Besides, on glucocorticoid receptor, the “binding to glucocorticoid receptor” value is given as “did not bind to glucocorticoid receptor”.
Consider `CC(C)(NS(=O)(=O)c1cccc(Cl)c1Cl)C(=O)NC1C2CC3CC1CC(C(N)=O)(C3)C2` (stereo not drawn) [compound 87, N-4-(2-(2,3-dichlorophenylsulfonamido)-2-methylpropanamido)adamantane-1-carboxyamide], for which the IC50 against mouse 11β-HSD1 turned out to be 0.007 µM; against human 11β-HSD1, 0.005 µM. Further, the “binding to glucocorticoid receptor” value at glucocorticoid receptor is given as “did not bind to glucocorticoid receptor”.
With `CC(C)(NS(=O)(=O)c1ccccc1[N+](=O)[O-])C(=O)NC1C2CC3CC1CC(C(N)=O)(C3)C2` (stereo not drawn) [compound 106, N-4-(2-(2-nitrophenylsulfonamido)-2-methylpropanamido)adamantane-1-carboxyamide], the half-inhibitory concentration (IC50) at mouse 11β-HSD1 was 0.04 µM; against human 11β-HSD1, 0.041 µM. In addition, the “binding to glucocorticoid receptor” value at glucocorticoid receptor is “did not bind to glucocorticoid receptor”. At human 11β-HSD2, the inhibition at 10 µM was not above 40%.
As for `Cc1c(Cl)cccc1S(=O)(=O)NC(C)(C)C(=O)NC1C2CC3CC1CC(C(N)=O)(C3)C2` (stereo not drawn) [compound 97, N-4-(2-(2-methyl-3-chlorophenylsulfonamido)-2-methylpropanamido)adamantane-1-carboxyamide], the IC50 was 0.01 µM at mouse 11β-HSD1 and 0.005 µM against human 11β-HSD1. For the same compound, on glucocorticoid receptor, the “binding to glucocorticoid receptor” value is reported as “did not bind to glucocorticoid receptor”.
As for `CC(C)(NS(=O)(=O)c1ccccc1F)C(=O)NC1C2CC3CC1CC(C(N)=O)(C3)C2` (stereo not drawn) [compound 85, N-4-(2-(2-fluorophenylsulfonamido)-2-methylpropanamido)adamantane-1-carboxyamide], half-maximal inhibition against human 11β-HSD1 (IC50) was put at 0.039 µM. For the same compound, the “binding to glucocorticoid receptor” value at glucocorticoid receptor is given as “did not bind to glucocorticoid receptor”.
As for `Cc1ccccc1S(=O)(=O)NC(C)(C)C(=O)NC1C2CC3CC1CC(C(N)=O)(C3)C2` (stereo not drawn) [compound 104, N-4-(2-(2-methylphenylsulfonamido)-2-methylpropanamido)adamantane-1-carboxyamide], the IC50 is 0.046 µM against mouse 11β-HSD1 and 0.014 µM at human 11β-HSD1. The “binding to glucocorticoid receptor” value at glucocorticoid receptor is recorded as “did not bind to glucocorticoid receptor”.
As for `CC(C)(NS(=O)(=O)c1cccc2cccnc12)C(=O)NC1C2CC3CC1CC(C(N)=O)(C3)C2` (stereo not drawn) [compound 105, N-4-(2-(quinoline-8-sulfonamido)-2-methylpropanamido)adamantane-1-carboxyamide], the IC50 against mouse 11β-HSD1 stood at 0.006 µM; against human 11β-HSD1, 0.023 µM. On human 11β-HSD2, the inhibition at 10 µM is not above 40%.
On to `CC(C)(NS(=O)(=O)c1ccccc1Br)C(=O)NC1C2CC3CC1CC(C(N)=O)(C3)C2` (stereo not drawn) [compound 84, N-4-(2-(2-bromophenylsulfonamido)-2-methylpropanamido)adamantane-1-carboxyamide], for which the IC50 was determined as 0.008 µM against mouse 11β-HSD1 and 0.011 µM against human 11β-HSD1. Also, the “binding to glucocorticoid receptor” value at glucocorticoid receptor was “did not bind to glucocorticoid receptor”.
With `CC(C)(NS(=O)(=O)c1c(F)cccc1F)C(=O)NC1C2CC3CC1CC(C(N)=O)(C3)C2` (stereo not drawn) [compound 89, N-4-(2-(2,6-difluorophenylsulfonamido)-2-methylpropanamido)adamantane-1-carboxyamide], at glucocorticoid receptor, the “binding to glucocorticoid receptor” value is “did not bind to glucocorticoid receptor”.
As to `CC(C)(NS(=O)(=O)c1ccccc1Cl)C(=O)NC1C2CC3CC1CC(C(N)=O)(C3)C2` (stereo not drawn) [compound 83, N-4-(2-(2-chlorophenylsulfonamido)-2-methylpropanamido)adamantane-1-carboxyamide], the IC50 against mouse 11β-HSD1 was 0.018 µM; against human 11β-HSD1, 0.009 µM. In addition, the “binding to glucocorticoid receptor” value at glucocorticoid receptor is “did not bind to glucocorticoid receptor”.
With `CC(C)(NS(=O)(=O)c1ccccc1C(F)(F)F)C(=O)NC1C2CC3CC1CC(C(N)=O)(C3)C2` (stereo not drawn) [compound 108, N-4-(2-(2-trifluoromethylphenylsulfonamido)-2-methylpropanamido)adamantane-1-carboxyamide], the IC50 against mouse 11β-HSD1 came out at 0.029 µM; on human 11β-HSD1, 0.011 µM. Besides, the “binding to glucocorticoid receptor” value at glucocorticoid receptor is listed as “did not bind to glucocorticoid receptor”. Further, the inhibition at 10 µM on human 11β-HSD2 is not above 40%.
As for `CC(C)(NS(=O)(=O)c1ccccc1[N+](=O)[O-])C(=O)NC1C2CC3CC(C2)CC1C3` (stereo not drawn) [compound 43, N-(adamantane-2-yl)-2-methyl-2-(2-nitrophenylsulfonamido)propanamide], the IC50 on mouse 11β-HSD1 is 0.085 µM; against human 11β-HSD1, 0.016 µM. On glucocorticoid receptor, the “binding to glucocorticoid receptor” value was “did not bind to glucocorticoid receptor”.
Regarding `CC(C)(NS(=O)(=O)c1c(Cl)cccc1Cl)C(=O)NC1C2CC3CC1CC(C(N)=O)(C3)C2` (stereo not drawn) [compound 121], the IC50 against mouse 11β-HSD1 was determined as 0.004 µM; at human 11β-HSD1, 0.009 µM. The inhibition at 10 µM on human 11β-HSD2 was not above 40%.
Take `Cc1ccc(S(=O)(=O)NC(C)(C)C(=O)NC2C3CC4CC2CC(C(N)=O)(C4)C3)cc1F` (stereo not drawn) [compound 92, N-4-(2-(3-fluoro-4-methylphenylsulfonamido)-2-methylpropanamido)adamantane-1-carboxyamide]: the IC50 against mouse 11β-HSD1 is 0.077 µM; against human 11β-HSD1 it was 0.032 µM. For the same compound, the “binding to glucocorticoid receptor” value at glucocorticoid receptor is recorded as “did not bind to glucocorticoid receptor”. Besides, the inhibition at 10 µM on human 11β-HSD2 is not above 40%.

Usually IC50 stands for the concentration needed to halve the response being measured. Lower therefore signals greater potency.
